Key:
[1] = test system: Y1 (DNA, duplex, free-base (2H) porphyrin-dU (porphyrin via rigid acetylene linker) at 5 of strand 1 and at 4 of strand 2) CGCATTATATGC/GCATATAATGCG; experiment: CD titration (porphyrin exciton coupling), Scatchard fit; details: Na+ 100 mM NaCl + 100 mM Na2HPO4 (assumed from Fig. 2 legend); 4 μM DNA; EtBr 40-800 μM; apparent; global intercalation; buffer not given; per base
[2] = test system: Y2 (DNA, duplex, free-base (2H) porphyrin-dU (porphyrin via rigid acetylene linker) at 10 of strand 1 and at 4 of strand 2) CGCATTATATGC/GCATATAATGCG; experiment: as above; details: Na+ 100 mM NaCl + 100 mM Na2HPO4 (assumed from Fig. 2 legend); 4 μM DNA; EtBr 40-800 μM; apparent; local site between adjacent porphyrins; buffer not given; per base

Ka (association binding constant) [1]: 1.43 ± 0.2 × 10^5 M^-1 | Ka (association binding constant) [2]: 3.54 ± 0.4 × 10^5 M^-1
Structure (SMILES): CC[n+]1c(-c2ccccc2)c2cc(N)ccc2c2ccc(N)cc21

Source: publication PMC7054460 (2020)
